Earlier results, collected in patent US20050074443A1, “Methods of attenuating autoimmune disease and compositions useful therefor” (priority 2003, published 2005).

Tested on: experimental autoimmune encephalomyelitis
Settings: exogenous administration, mouse model

C=C1/C(=C\C=C2/CCC[C@]3(C)[C@@H]([C@H](C)CCCC(C)(C)O)CC[C@@H]23)C[C@@H](O)C[C@@H]1O [1,25-dihydroxyvitamin D3]
effect on experimental autoimmune encephalomyelitis: can prevent experimental autoimmune encephalomyelitis
